Activity calls are given as the source filed them.
Columns and labels:
[1] = target: T1, Caspase-6 (Homo sapiens, UniProt P55212); assay: inhibition of CASP6 peptide cleavage – biochemical, VEID-R110 fluorescence, cherry-pick, dose response (AID 720632)
T1 sequence (P55212 whole entry): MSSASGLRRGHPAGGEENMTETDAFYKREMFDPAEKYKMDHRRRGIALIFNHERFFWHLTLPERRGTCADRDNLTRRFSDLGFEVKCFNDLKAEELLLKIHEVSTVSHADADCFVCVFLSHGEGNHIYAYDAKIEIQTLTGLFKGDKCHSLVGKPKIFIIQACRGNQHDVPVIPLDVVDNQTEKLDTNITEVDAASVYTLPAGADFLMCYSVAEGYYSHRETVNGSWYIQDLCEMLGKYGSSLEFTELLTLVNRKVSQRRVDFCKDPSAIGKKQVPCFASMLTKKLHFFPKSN

[2] = tested on: BJ; assay: BJ-TERT fibroblast viability loss – cell-based, RAS-independent, luminescence, dose response (AID 1933); type: functional; settings: Homo sapiens
[3] = target: T2, Coagulation factor XII (Homo sapiens, UniProt P00748); type: functional;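 also: activated factor XIIa alpha cleaving a fluorogenic AMC peptide substrate; inhibitor potency from loss of enzyme activity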
T2 sequence (P00748 whole entry): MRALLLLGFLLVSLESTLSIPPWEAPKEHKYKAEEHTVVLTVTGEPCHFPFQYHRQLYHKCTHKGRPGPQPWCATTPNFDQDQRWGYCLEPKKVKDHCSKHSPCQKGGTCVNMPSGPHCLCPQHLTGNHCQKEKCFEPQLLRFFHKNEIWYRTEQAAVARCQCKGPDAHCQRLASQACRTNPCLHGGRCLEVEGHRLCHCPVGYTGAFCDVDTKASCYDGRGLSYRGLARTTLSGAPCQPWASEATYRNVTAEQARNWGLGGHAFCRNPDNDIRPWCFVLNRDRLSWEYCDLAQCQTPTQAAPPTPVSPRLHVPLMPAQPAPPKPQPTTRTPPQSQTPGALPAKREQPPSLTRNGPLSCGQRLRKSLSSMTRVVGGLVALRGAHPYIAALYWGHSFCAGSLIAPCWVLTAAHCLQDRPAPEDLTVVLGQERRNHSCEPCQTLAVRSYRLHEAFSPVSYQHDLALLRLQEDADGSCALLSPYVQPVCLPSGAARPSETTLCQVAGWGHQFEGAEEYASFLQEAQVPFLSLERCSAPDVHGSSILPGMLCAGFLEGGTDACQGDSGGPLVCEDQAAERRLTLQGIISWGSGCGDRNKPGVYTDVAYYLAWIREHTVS

[4] = NIH-3T3 fibroblast cytotoxicity, dose response, cytotoxicity control, cell-based, fluorescence, Alamar Blue, secondary assay (AID 2327); type: functional;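 also: NIH-3T3 mouse fibroblasts cultured with fluconazole at 8 µg/mL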
[5] = tested on: BJ; assay: cells; type: functional, cell-based; settings: Homo sapiens
[6] = fluconazole-exposed Candida albicans growth modulators – fluorescence, retest, confirmation (AID 2467); type: functional, cell-based
[7] = tested on: BJ; assay: BJ-TERT-LT-ST fibroblast viability loss – cell-based, RAS-independent, luminescence, dose response (AID 1935); type: functional; settings: Homo sapiens;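 also: BJ fibroblasts immortalized with TERT plus LT and ST oncogenes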
[8] = DRD fibroblast viability loss – cell-based, non-viral oncogenic, luminescence, dose response (AID 1934); type: functional; settings: Homo sapiens
[9] = target: T3, Protein Tat (Human immunodeficiency virus type 1 group M subtype B (isolate HXB2)(HIV-1), UniProt P04608); type: functional;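 also: tat binding to TAR RNA read out by fluorescence polarization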
T3 sequence (P04608 whole entry): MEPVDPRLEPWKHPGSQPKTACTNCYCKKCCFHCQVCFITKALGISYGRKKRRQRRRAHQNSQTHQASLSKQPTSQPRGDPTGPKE

[10] = viability loss in THP-1 monocytes – THP-1 cells, cytotoxicity control for Vif-APOBEC3G degradation inhibitor project, dose response (AID 1117359); type: functional; settings: THP-1
[11] = tested on: H9c2; assay: cells; type: functional, cell-based; settings: Rattus norvegicus, H9c2, Myocardium;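 also: confirmatory concentration-response retest of ultra-high-throughput screening hits for modulation of myocardial damage; cell death induced by hydrogen peroxide oxidative stress; compound pretreatment for 60 min then peroxide exposure for 2 h; potency is for protecting the cells against peroxide damage rather than for killing them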
[12] = target: Heat shock protein HSP 90-alpha (Homo sapiens, UniProt P07900); type: functional, organism-based
[13] = target: T4, Aminopeptidase N (Plasmodium falciparum FcB1/Columbia, UniProt O96935); assay: malaria alanyl aminopeptidase activity blockers – biochemical, fluorogenic H-Leu-NHMec substrate, 1536-well (AID 1445); design: species or system Plasmodium falciparum 3D7, 3D7
T4 sequence (O96935 whole entry): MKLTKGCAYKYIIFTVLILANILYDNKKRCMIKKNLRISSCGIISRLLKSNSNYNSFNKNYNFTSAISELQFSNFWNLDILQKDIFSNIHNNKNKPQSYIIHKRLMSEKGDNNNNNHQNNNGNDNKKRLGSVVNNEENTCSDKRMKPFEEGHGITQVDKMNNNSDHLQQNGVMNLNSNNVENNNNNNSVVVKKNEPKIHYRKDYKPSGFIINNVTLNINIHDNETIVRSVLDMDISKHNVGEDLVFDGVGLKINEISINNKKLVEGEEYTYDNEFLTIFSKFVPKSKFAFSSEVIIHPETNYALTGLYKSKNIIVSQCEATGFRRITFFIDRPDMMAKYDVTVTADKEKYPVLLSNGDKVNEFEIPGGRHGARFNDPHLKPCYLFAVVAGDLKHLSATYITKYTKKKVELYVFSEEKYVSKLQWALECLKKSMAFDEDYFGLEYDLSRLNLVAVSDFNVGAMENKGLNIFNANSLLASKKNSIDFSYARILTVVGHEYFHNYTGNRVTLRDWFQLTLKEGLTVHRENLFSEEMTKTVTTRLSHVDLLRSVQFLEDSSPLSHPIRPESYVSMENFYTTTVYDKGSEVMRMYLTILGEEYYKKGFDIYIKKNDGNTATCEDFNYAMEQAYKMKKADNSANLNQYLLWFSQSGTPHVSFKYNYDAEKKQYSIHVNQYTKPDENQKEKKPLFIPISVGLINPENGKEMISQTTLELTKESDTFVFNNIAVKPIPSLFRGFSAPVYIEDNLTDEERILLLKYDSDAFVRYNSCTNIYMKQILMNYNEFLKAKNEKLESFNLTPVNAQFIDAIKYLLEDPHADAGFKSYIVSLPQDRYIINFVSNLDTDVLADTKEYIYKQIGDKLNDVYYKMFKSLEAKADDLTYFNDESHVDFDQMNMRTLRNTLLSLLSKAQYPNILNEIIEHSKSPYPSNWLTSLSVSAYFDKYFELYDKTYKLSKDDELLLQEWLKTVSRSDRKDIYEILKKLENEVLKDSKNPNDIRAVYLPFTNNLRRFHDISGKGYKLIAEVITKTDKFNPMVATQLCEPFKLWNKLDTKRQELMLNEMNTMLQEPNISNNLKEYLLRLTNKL

[14] = HepG2 cell cytotoxicity, dose response, cytotoxicity control for non-replicating M. tuberculosis project (AID 489018); type: functional; settings: Mycobacterium tuberculosis
[15] = THP-1 cell cytotoxicity, dose response, cytotoxicity control for non-replicating M. tuberculosis project (AID 489025); type: functional
[16] = target: Nuclear receptor subfamily 5 group A member 2 (Homo sapiens, UniProt O00482); type: functional, cell-based;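 also: HEK293T cells transfected with LRH-1 and a StAR promoter luciferase reporter; potency for inhibitors that lower LRH-1 driven reporter light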
[17] = nonselective StAR promoter luciferase inhibitors – cell-based, luminescence, luciferase reporter, counter-screen for LRH-1 inverse agonist project, dose response (AID 651969); type: functional
[18] = target: Steroidogenic factor 1 (Homo sapiens, UniProt Q13285); assay: Counterscreen for inverse agonists of the liver receptor homolog-1 (LRH-1; NR5A2): Luminescence-based cell-based high throughput dose response assay to identify inverse agonists of the Steroidogenic Factor 1 Nuclear Receptor (SF1; NR5A1).; type: functional
[19] = target: T5, Corticotropin-releasing factor receptor 2/Corticotropin-releasing factor-binding protein (Homo sapiens, UniProt P24387+Q13324); assay: activators of CRF receptor 2 with binding protein – uHTS hits, confirmation (AID 602473); type: functional; settings: read-out: EC50_Mean
T5 sequence (Q13324 whole entry): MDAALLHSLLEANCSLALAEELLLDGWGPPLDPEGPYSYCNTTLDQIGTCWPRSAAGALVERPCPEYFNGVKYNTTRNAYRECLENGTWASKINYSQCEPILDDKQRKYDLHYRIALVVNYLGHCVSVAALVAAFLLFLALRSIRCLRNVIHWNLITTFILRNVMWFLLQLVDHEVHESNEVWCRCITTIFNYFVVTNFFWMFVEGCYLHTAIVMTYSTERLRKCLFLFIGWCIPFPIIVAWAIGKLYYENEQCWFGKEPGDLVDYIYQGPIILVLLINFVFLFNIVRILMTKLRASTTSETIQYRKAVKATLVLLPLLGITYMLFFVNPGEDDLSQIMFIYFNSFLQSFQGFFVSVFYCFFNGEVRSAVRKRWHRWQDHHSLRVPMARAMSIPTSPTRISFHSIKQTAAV
T5 sequence (P24387 whole entry): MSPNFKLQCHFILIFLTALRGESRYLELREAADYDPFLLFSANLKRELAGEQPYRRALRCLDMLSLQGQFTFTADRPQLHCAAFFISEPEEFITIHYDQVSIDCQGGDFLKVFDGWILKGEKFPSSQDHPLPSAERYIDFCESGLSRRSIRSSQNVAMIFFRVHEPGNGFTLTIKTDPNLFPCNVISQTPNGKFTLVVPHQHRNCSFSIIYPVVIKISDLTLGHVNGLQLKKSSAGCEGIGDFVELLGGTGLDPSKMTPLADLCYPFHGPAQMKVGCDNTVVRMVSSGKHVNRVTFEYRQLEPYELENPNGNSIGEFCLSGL

[20] = tested on: Vero; assay: cells; type: functional; settings: Chlorocebus sabaeus

Sequence of Steroidogenic factor 1 (Q13285 whole entry): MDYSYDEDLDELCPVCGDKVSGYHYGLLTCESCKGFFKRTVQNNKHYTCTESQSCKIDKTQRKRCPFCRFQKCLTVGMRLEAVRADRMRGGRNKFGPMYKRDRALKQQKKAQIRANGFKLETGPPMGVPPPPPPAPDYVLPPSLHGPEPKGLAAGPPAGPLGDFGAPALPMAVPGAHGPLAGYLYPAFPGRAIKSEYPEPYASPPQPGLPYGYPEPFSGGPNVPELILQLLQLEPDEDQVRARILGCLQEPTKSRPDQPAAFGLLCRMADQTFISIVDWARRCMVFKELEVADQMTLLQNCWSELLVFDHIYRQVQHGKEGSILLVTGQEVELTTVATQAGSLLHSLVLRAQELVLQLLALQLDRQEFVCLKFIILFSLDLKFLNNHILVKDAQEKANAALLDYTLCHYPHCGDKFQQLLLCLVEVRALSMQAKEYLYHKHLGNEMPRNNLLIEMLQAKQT
Sequence of Nuclear receptor subfamily 5 group A member 2 (O00482 whole entry): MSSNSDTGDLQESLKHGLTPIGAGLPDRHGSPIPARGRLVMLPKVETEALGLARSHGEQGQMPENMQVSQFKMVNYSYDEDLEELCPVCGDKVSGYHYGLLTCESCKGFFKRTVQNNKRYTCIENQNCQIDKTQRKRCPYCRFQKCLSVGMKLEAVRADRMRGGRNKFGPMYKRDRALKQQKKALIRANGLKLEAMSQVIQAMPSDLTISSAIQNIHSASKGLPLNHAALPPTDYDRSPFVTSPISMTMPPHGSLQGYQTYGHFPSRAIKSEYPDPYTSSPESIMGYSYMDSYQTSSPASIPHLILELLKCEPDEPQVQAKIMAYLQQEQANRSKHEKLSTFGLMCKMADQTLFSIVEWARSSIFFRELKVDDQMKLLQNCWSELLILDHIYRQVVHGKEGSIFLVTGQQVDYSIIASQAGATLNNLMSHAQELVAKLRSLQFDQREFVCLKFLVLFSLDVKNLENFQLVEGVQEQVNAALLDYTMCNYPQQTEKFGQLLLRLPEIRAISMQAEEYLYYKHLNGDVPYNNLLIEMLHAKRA

CC(NC(=O)CN1c2cccc3cccc(c23)S1(=O)=O)c1ccc(S(N)(=O)=O)cc1 (stereo unspecified)
AC50 [1]: 22.4 µM (active)

CCOc1ccc(-c2c(C)[n+](-c3ccc(OCC)cc3)c3n2CCCCC3)cc1.[O-][Cl+3]([O-])([O-])[O-]
EC50 [2]: 9.44 µM (inconclusive)
IC50 [3]: > 50 µM (inactive)
EC50 [4]: 39.3 µM (active)
EC50 [5]: 8.54 µM (active)
EC50 [6]: 2.36 µM (active)
EC50 [7]: 17.1 µM (active)
EC50 [8]: 13.5 µM (inconclusive)

CCC(c1nnnn1Cc1ccco1)N(Cc1ccccc1OC)Cc1cc2cc(C)ccc2nc1O (stereo unspecified)
IC50 [9]: > 100 µM (inconclusive)
CC50 [10]: > 40 µM (active)

O=C(Nc1nc(-c2ccccn2)cs1)c1ccc(-c2ccccc2F)o1
IC50 [11]: > 79 µM (inactive)
AC50 [12]: 6.54 µM (active)

Nc1nnc(SCC(=O)Nc2ccccc2-c2ccccc2)[nH]1
IC50 [13]: 51.2 µM (active)

COc1ccc2cc(C(=O)NCc3ccccc3CN3CCCC3)ccc2c1
CC50 [14]: > 20 µM (active)
CC50 [15]: > 40 µM (active)

O=C(NCc1ccco1)c1nn(-c2ccccc2)c(=O)c2ccccc12
IC50 [16]: 35.9 µM (inactive)
IC50 [17]: 12 µM (inactive)
IC50 [18]: 3.09 µM (active)

COCCOC(=O)/C(=C/c1ccc(OC(=O)c2ccccc2)cc1)C(C)=O
AC50 [12]: 3.02 µM (active)
EC50 [19]: > 53 µM (inactive)

Cc1cc(C)c2c(O)nc(SCC(=O)Nc3ccc(Br)cc3)nc2n1
IC50 [16]: 28.2 µM (inactive)
IC50 [17]: 35.9 µM (inactive)
IC50 [18]: 33.4 µM (inactive)

CCOC(=O)CC1C(=O)NCCN1c1nc2ccc(C)cn2c(=O)c1/C=C1\SC(=S)N(CC(C)C)C1=O (stereo unspecified)
IC50 [13]: 35.7 µM (active)

CN(C)C=O.NS(=O)(=O)c1cccc(NC(=O)CSc2nc(O)c3c(C(F)(F)F)cc(-c4cccs4)nc3n2)c1
IC50 [13]: 30.5 µM (active)

CCN(CC(=O)NC(C)(C)C)C(=O)CCl
CC50 [20]: 22.2 µM (active)

Source: ChEMBL document CHEMBL1201862, “PubChem BioAssay data set” (2004)
